Activity calls are given as the source filed them.
Legend:
[1] = T. cruzi growth inhibition in host cells, dose response, cell-based, plate reader, dry powder, set 2 (AID 652275); type: functional
[2] = T. cruzi intracellular amastigote growth inhibition, dose response, imaging, CA-I/72 strain, bovine embryo skeletal muscle, dry powder (AID 651885); type: functional, cell-based
[3] = growth inhibition of intracellular T. cruzi, dose response, cell-based, plate reader, dry powder samples (AID 651845); type: functional
[4] = A375 melanoma cell viability loss, dose response, counter-screen for MITF modulator project, CellTiter-Glo luminescence, dry powder, set 9 (AID 651591); type: functional, cell-based; conditions: A-375
[5] = A375 melanoma cell viability loss, dose response, counter-screen for MITF inhibitor project, CellTiter-Glo luminescence, dry powder, set 4 (AID 624364); type: functional, cell-based; conditions: A-375;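 also: A375 melanoma cells are MITF independent so this is a counter screen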
[6] = MALME3 melanoma cell viability reduction, dose response, orthogonal assay for MITF inhibitor project, CellTiter-Glo luminescence, dry powder, set 5 (AID 651584); type: functional, cell-based; conditions: MALME-3
[7] = MITF Orthogonal Assay: SK-MEL-5 CTG Assay Measured in Cell-Based System Using Plate Reader - 2084-02_Inhibitor_Dose_DryPowder_Activity_Set5.; type: functional
[8] = MITF Measured in Cell-Based System Using Plate Reader - 2084-01_Inhibitor_Dose_DryPowder_Activity_Set7.; type: functional
[9] = MITF Measured in Cell-Based System Using Plate Reader - 2084-01_Inhibitor_Dose_DryPowder_Activity_Set6.; type: functional
[10] = SK-MEL-5 parental cell viability reduction, dose response, orthogonal assay for MITF inhibitor project, CellTiter-Glo luminescence, dry powder, set 8 (AID 651586); type: functional, cell-based
[11] = A375 melanoma cell cytotoxicity, dose response, counter-screen for MITF inhibitor project, CellTiter-Glo luminescence, dry powder, set 7 (AID 624490); type: functional, cell-based; conditions: A-375
[12] = MITF Orthogonal Assay: MALME3 CTG Assay Measured in Cell-Based System Using Plate Reader - 2084-04_Inhibitor_Dose_DryPowder_Activity_Set6.; type: functional; conditions: MALME-3
[13] = SK-MEL-5 parental line viability, dose response, MITF inhibitor project, cell-based, CellTiter-Glo, dry powder, set 6 (AID 624429); type: functional
[14] = TRPM1 promoter luciferase reporter signal decrease, dose response, MITF inhibitor project, cell-based, SK-MEL-5, dry powder, set 9 (AID 651588); type: functional
[15] = A375 melanoma cell cytotoxicity, dose response, counter-screen for MITF inhibitor project, CellTiter-Glo luminescence, dry powder, set 6 (AID 624488); type: functional, cell-based; conditions: A-375
[16] = cytotoxicity in primary human melanocytes, dose response, cytotoxicity control, cell-based, plate reader, dry powder (AID 651920); type: functional
Phospholipase D1 = Phospholipase D1 (Homo sapiens, UniProt Q13393); test: PLD1 Cellular Concentration Response Study.; type: functional
Phospholipase D1, sequence (Q13393 whole entry): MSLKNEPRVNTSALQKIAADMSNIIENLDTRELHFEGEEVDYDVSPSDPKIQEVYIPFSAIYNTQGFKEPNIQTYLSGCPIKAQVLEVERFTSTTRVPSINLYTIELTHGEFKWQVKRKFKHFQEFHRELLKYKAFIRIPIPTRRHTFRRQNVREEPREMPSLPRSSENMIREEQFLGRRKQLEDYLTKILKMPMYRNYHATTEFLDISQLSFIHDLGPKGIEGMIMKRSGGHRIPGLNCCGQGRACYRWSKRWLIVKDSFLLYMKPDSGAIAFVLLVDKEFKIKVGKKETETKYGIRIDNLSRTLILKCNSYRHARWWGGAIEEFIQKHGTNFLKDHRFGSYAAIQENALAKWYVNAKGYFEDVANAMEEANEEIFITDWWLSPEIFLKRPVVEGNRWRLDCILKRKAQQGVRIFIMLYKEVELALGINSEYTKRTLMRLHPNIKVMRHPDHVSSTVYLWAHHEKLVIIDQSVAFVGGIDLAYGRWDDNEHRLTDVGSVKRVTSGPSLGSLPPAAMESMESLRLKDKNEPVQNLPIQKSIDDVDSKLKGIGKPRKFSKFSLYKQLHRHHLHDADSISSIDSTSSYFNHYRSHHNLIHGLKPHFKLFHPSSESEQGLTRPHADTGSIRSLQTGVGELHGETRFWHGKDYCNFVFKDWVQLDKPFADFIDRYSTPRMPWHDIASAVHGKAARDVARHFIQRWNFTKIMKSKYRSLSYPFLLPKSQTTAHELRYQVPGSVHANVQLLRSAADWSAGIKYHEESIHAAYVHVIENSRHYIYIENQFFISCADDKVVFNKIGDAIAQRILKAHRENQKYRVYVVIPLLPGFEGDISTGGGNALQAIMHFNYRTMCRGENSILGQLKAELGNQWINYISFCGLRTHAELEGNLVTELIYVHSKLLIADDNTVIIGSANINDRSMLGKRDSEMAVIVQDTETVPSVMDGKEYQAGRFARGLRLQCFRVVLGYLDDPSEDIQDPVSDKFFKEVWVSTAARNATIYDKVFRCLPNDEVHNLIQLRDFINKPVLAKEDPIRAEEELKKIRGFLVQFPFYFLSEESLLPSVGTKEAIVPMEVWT

Phospholipase D2 = Phospholipase D2 (Homo sapiens, UniProt O14939); test: PLD2 Cellular Concentration Response Study.; type: functional
Phospholipase D2, sequence (O14939 whole entry): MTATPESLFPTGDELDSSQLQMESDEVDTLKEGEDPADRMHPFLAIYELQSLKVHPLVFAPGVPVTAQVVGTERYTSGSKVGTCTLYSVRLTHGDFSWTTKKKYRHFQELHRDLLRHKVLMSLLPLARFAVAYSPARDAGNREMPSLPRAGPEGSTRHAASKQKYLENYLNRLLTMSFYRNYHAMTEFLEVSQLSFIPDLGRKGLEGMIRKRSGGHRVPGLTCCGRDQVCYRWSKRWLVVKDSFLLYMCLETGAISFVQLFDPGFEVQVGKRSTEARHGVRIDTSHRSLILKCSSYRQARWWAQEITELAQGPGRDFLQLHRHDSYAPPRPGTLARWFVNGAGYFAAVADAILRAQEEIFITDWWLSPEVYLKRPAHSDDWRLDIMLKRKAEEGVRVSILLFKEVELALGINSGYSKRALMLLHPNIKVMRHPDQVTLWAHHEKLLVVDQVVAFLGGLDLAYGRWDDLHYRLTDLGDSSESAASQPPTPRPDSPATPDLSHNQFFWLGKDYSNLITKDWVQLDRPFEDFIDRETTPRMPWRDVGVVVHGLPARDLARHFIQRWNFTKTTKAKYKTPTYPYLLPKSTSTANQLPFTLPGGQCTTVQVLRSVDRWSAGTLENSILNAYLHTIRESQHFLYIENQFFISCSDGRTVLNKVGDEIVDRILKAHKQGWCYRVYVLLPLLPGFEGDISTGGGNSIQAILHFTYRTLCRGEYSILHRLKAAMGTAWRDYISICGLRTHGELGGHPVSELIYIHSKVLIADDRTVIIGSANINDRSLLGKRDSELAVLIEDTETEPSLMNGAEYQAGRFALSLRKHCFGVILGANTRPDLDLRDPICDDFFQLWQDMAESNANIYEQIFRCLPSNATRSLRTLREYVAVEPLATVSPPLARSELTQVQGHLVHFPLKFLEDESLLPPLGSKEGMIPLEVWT

[17] = P. falciparum Dd2 growth inhibitors, dose response, SYBR Green, dry powder samples (AID 1159566); type: functional, cell-based;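 also: potency for growth inhibition with lower SYBR green DNA signal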
[18] = P. falciparum 3D7-ScDHODH growth inhibitors, dose response, SYBR Green, dry powder samples (AID 1159570); type: functional, cell-based;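 also: parasite growth measured after 72 hours of compound exposure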
[19] = P. falciparum ATP4 D1247Y mutant growth inhibitors, dose response, NITD609-resistant line, SYBR Green, dry powder (AID 1159571); type: functional, cell-based;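 also: parasites synchronized at ring stage by sorbitol before testing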
[20] = P. falciparum Dd2 growth inhibitors, dose response, SYBR Green, cherry-picked samples (AID 1159567); type: functional, cell-based

Structure (SMILES): CC(C)N1C[C@H](C)[C@@H](CN(C)Cc2ccccc2)Oc2c(NC(=O)c3ccncc3)cccc2C1=O
- AC50 [1]: 0.00035 µM (active)
- IC50 [2]: 0.0026 µM (active)
- AC50 [3]: 0.00035 µM (active)

Structure (SMILES): COC1=C(NS(=O)(=O)c2cccs2)C(=O)c2ccccc2C1=O
- AC50 [4]: > 70 µM (inactive)
- AC50 [5]: > 70 µM (inactive)
- AC50 [6]: 38 µM (active)
- AC50 [7]: 19.1 µM (active)
- AC50 [8]: 12.3 µM (active)
- AC50 [9]: 13.2 µM (active)
- AC50 [10]: 21 µM (active)
- AC50 [11]: > 70 µM (inactive)
- AC50 [12]: 38 µM (active)
- AC50 [13]: 20.2 µM (active)
- AC50 [14]: 26.3 µM (active)
- AC50 [15]: 64.7 µM (active)
- AC50 [16]: 64.3 µM (active)

Structure (SMILES): O=C(NCCN1CCC2(CC1)C(=O)NCN2Cc1cccnc1)c1cc2cc(F)ccc2[nH]1
- IC50 (Phospholipase D1): 3.15 µM (active)
- IC50 (Phospholipase D2): 0.12 µM (active)

Structure (SMILES): COc1ccc2c3c(n(C)c2c1)[C@@H](CO)N(C(=O)c1ccc(F)cc1)CC31CCN(C(=O)Nc2ccc(F)cc2)CC1
- AC50 [17]: 0.795 µM (active)
- AC50 [18]: 1.04 µM (active)
- AC50 [19]: 1.06 µM (active)
- AC50 [20]: 1.89 µM (active)

Source: ChEMBL document CHEMBL1201862, “PubChem BioAssay data set” (2004)
